Where two headings read alike, the source gives them in different places.
What was measured:
[1] = molecular target: T1, androgen receptor (AR) splicing variant AR-v7 (Homo sapiens, UniProt P10275); experiment: Degradation activity on androgen receptor splicing variant AR-v7 in 22RV1 cells (ELISA); type: cell-based; conditions: AR-v7 degradation in 22RV1 cells, 48 h, class symbols
T1 construct: The degradation activity of compounds on AR-v7 in 22RV1 cells; host or cells: 22RV1 cells
T1 sequence (P10275 1-644 isoform P10275-3): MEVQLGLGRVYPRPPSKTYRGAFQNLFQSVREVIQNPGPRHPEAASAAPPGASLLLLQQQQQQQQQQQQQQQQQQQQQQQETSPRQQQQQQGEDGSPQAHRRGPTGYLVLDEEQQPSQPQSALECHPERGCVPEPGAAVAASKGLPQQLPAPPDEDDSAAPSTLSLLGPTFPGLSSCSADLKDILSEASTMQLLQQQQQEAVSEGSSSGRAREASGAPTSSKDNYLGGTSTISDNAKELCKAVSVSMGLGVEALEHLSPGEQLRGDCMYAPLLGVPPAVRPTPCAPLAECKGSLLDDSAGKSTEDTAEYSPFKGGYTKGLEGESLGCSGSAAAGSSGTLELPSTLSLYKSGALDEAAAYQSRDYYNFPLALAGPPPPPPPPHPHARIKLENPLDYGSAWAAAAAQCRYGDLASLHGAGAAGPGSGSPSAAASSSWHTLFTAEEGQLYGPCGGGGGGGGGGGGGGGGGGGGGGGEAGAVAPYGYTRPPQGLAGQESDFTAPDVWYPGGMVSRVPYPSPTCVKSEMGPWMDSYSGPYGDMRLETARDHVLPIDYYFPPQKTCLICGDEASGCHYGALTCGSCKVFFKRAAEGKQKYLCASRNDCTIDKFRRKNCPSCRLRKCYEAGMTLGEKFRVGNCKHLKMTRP

[2] = tested on: 22RV1 cells
[3] = Homo sapiens, 22Rv1, 144 h, read-out: 22RV1 IC50 (nM), 22RV1 cells, 6 days culture, CCK-8, OD 450 nm
[4] = read-out: 22RV1 IC50, 22RV1 cells, 6 days culture, CCK-8, OD 450 nm
[5] = Homo sapiens, 22Rv1, 144 h, read-out: 22RV1 IC50 (nM)

DC50 [1] [nM] | IC50 [2, 3] [nM] | IC50 [2, 4] [nM] | SMILES | IC50 [2, 5] [nM]
1000 to 5000 | 140 | – | CN(C)C(=O)c1noc(COc2ccc(C(C)(C)c3ccc(OCCCNc4cccc5c4C(=O)N(C4CCC(=O)NC4=O)C5=O)cc3)cc2)n1 (centres unmarked) [Example 181, 5-((4-(2-(4-(3-((2-(2,6-dioxopiperidin-3-yl)-1,3-dioxoisoindolin-4-yl)amino)propoxy)phenyl)propan-2-yl)phenoxy)methyl)-N,N-dimethyl-1,2,4-oxadiazol-3-carbonylamine] | –
< 10 | 2 | – | CC(C)(c1ccc(Oc2cccc(-n3nccn3)n2)cc1)c1ccc(O[C@H]2C[C@H](Nc3ccc4c(c3)C(=O)N(C3CCC(=O)NC3=O)C4=O)C2)cc1 (some centres unmarked) [Example 256, 5-((1r,3r)-3-(4-(2-(4-((6-(2H-1,2,3-triazol-2-yl)pyridin-2-yl)oxy)phenyl)propan-2-ylphenoxy)cyclobutyl)amino)-2-(2,6-dioxopiperidin-3-yl)isoindolin-1,3-dione] | –
< 10 | 14 | – | CC(C)(c1ccc(Oc2cncc(-n3ccnn3)n2)cc1)c1ccc(O[C@H]2C[C@H](Nc3ccc4c(c3)C(=O)N(C3CCC(=O)NC3=O)C4=O)C2)cc1 (some centres unmarked) [Example 580] | –
< 10 | – | 3 | CC(=O)c1ncc(Oc2ccc(C(C)(C)c3ccc(OC4CC(Nc5ccc6c(c5)C(=O)N(C5CCC(=O)NC5=O)C6=O)C4)cn3)cc2)cn1 (centres unmarked) [Example 222, 5-((1r,3r)-3-((6-(2-(4-((2-acetylpyrimidin-5-yl)oxy)phenyl)propan-2-yl)pyridin-3-yl)oxy)cyclobutyl)amino)-2-(2,6-dioxopyridin-3-yl)isoindolin-1,3-dione] | –
< 10 | 22 | – | Cn1cc(-c2cccc(COc3ccc(C(C)(C)c4ccc(O[C@H]5C[C@H](Nc6ccc7c(c6)C(=O)N(C6CCC(=O)NC6=O)C7=O)C5)cc4)cc3)n2)cn1 (some centres unmarked) [Example 416] | –
11 to 100 | 10 | – | CC(C)(c1ccc(Oc2cnc(-n3nccn3)cn2)cc1)c1ccc(O[C@H]2C[C@H](Nc3ccc4c(c3)C(=O)N(C3CCC(=O)NC3=O)C4=O)C2)cc1 (some centres unmarked) [Example 583] | –
< 10 | – | 23 | CC(C)(c1ccc(OCc2ccnc(N3CCOCC3)n2)cc1)c1ccc(OC2CC(Nc3ccc4c(c3)C(=O)N(C3CCC(=O)NC3=O)C4=O)C2)cc1 (centres unmarked) [Example 396, 2-(2,6-dioxopyridin-3-yl)-5-(1s,3s)-3-(4-(2-(4-(2-morpholinylpyrimidin-4-yl)methoxy)phenyl)propan-2-yl)phenoxy)cyclobutyl)amino)isoindol-1,3-dione] | –
11 to 100 | 35 | – | CC(C)(c1ccc(OCc2cnc(N3CC4(COC4)C3)nc2)cc1)c1ccc(O[C@H]2C[C@H](Nc3ccc4c(c3)C(=O)N(C3CCC(=O)NC3=O)C4=O)C2)cc1 (some centres unmarked) [Example 535] | –
11 to 100 | 10 | – | CN1CCN(c2nccc(COc3ccc(C(C)(C)c4ccc(OC5CC(Nc6ccc7c(c6)C(=O)N(C6CCC(=O)NC6=O)C7=O)C5)cc4)cc3)n2)CC1 (centres unmarked) [Example 393] | –
< 10 | 6 | – | CC(C)(c1ccc(OCc2ccnc(N3CC(N4CCC4)C3)n2)cc1)c1ccc(O[C@H]2C[C@H](Nc3ccc4c(c3)C(=O)N(C3CCC(=O)NC3=O)C4=O)C2)cc1 (some centres unmarked) [Example 414] | –
11 to 100 | 33 | – | CC(C)(c1ccc(O[C@H]2C[C@@H](Nc3ccc4c(c3)C(=O)N(C3CCC(=O)NC3=O)C4=O)C2)cc1)c1ccc(N2CCc3ncnc(N4CC5(COC5)C4)c3C2)cc1 (some centres unmarked) [Example 194] | –
< 10 | 5 | – | CC(C)(c1ccc(OCc2ccnc(-n3ccnn3)n2)cc1)c1ccc(O[C@H]2C[C@@H](Nc3ccc4c(c3)C(=O)N(C3CCC(=O)NC3=O)C4=O)C2)cc1 (some centres unmarked) [Example 445, 5-(((1s,3s)-3-(4-(2-(4-((2-(1H-1,2,3-triazol-1-yl)pyrimidin-4-yl)methoxy)phenyl)propan-2-yl)phenoxy)cyclobutyl)amino)-2-(2,6-dioxopiperidin-3-yl)isoindolin-1,3-dione] | –
< 10 | 9 | – | CC(=O)c1nccc(COc2ccc(C(C)(C)c3ccc(OCCNc4ccc5c(c4)C(=O)N(C4CCC(=O)NC4=O)C5=O)cc3)cc2)n1 (centres unmarked) [Example 109, 5-((2-(4-(2-(4-((2-acetylpyrimidin-4-yl)methoxy)phenyl)propan-2-yl)phenoxy)ethyl)amino)-2-(2,6-dioxopiperidin-3-yl) isoindolin-1,3-dione] | –
< 10 | 4 | – | CC(C)(c1ccc(OCc2ccnc(N3CC4(COC4)C3)n2)cc1)c1ccc(C(=O)NC2CN(c3ccc4c(c3)C(=O)N(C3CCC(=O)NC3=O)C4=O)C2)cc1 (centres unmarked) [Example 506, 4-(2-(4-((2-(2-oxa-6-azaspiro[3.3]heptan-6-yl)pyrimidin-4-yl)methoxy)phenyl)propan-2-yl)-N-(1-(2-(2,6-dioxopiperidin-3-yl)-1,3-dioxoisoindolin-5-yl)azetidin-3-yl)benzamide] | –
< 10 | 12 | – | CC(C)(c1ccc(OCc2nc(N3CC4(COC4)C3)ncc2F)cc1)c1ccc(O[C@H]2C[C@H](Nc3ccc4c(c3)C(=O)N(C3CCC(=O)NC3=O)C4=O)C2)cc1 (some centres unmarked) [Example 200] | –
11 to 100 | 7 | – | CC(O)c1ccc(Oc2ccc(C(C)(C)c3ccc(O[C@H]4C[C@@H](Nc5ccc6c(c5)C(=O)N(C5CCC(=O)NC5=O)C6=O)C4)cc3)cc2)nn1 (some centres unmarked) [Example 522] | –
11 to 100 | 54 | – | CC(C)(c1ccc(OCCCNc2ccc3c(c2)C(=O)N(C2CCC(=O)NC2=O)C3=O)cc1)c1ccc(OCc2ccnc(-n3cncn3)n2)cc1 (centres unmarked) [Example 389, 5-((3-(4-(2-(4-((2-(1H-1,2,4-triazol-1-yl)pyrimidin-4-yl)methoxy)phenyl)propan-2-yl)phenoxy)propyl)amino)-2-(2,6-dioxopiperidin-3-yl)isoindol-1,3-dione] | –
< 10 | 7 | – | CC(C)(c1ccc(Oc2cnc(CO)nc2)cc1)c1ccc(O[C@H]2C[C@H](Nc3ccc4c(c3)C(=O)N(C3CCC(=O)NC3=O)C4=O)C2)cc1 (some centres unmarked) [Example 549] | –
< 10 | 8 | – | CC(C)(O)c1ncc(Oc2ccc(C(C)(C)c3ccc(O[C@H]4C[C@H](Nc5ccc6c(c5)C(=O)N(C5CCC(=O)NC5=O)C6=O)C4)cc3)cc2)cn1 (some centres unmarked) [Example 548] | –
– | 12 | – | CC(C)(c1ccc(OCc2nccc(N3CC4(COC4)C3)n2)cc1)c1ccc(O[C@H]2C[C@H](Nc3ccc4c(c3)C(=O)N(C3CCC(=O)NC3=O)C4=O)C2)cc1 (some centres unmarked) [Example 544] | –
– | 12 | – | CC(C)(c1ccc(OCc2cncc(N3CC4(COC4)C3)n2)cc1)c1ccc(O[C@H]2C[C@@H](Nc3ccc4c(c3)C(=O)N(C3CCC(=O)NC3=O)C4=O)C2)cc1 (some centres unmarked) [Example 538] | –
– | – | – | CC(C)(c1ccc(OCc2ccnc(N3CC4(COC4)C3)n2)cc1)c1ccc(O[C@H]2C[C@H](Nc3ccc4c(c3)C(=O)N(C3CCC(=O)NC3=O)C4=O)C2)c(F)c1 (some centres unmarked) [Example 364, 5-(((1r,3r)-3-(4-(2-(4-((2-(2-oxa-6-azaspiro[3.3]heptane-6-yl)pyrimidin-4-yl)methoxy)phenyl)isopropan-2-yl)-2-fluorophenoxy)cyclobutyl)amino)-2-(2,6-dioxopiperidin-3-yl)isoindolin-1,3-dione] | 12
– | 9 | – | CC(C)(c1ccc(OCc2cc(N3CC4(COC4)C3)ncn2)cc1)c1ccc(OC2CC(Nc3ccc4c(c3)C(=O)N(C3CCC(=O)NC3=O)C4=O)C2)cc1 (centres unmarked) [Example 532] | –
11 to 100 | – | – | CC(C)(c1ccc(Oc2cnc(CN3CC(F)(F)C3)nc2)cc1)c1ccc(OC2CC(Nc3ccc4c(c3)C(=O)N(C3CCC(=O)NC3=O)C4=O)C2)cc1 (centres unmarked) [Example 479, 5-(((1r,3r)-3-(4-(2-(4-((2-((3,3-difluoroazetidin-1-yl)methyl)pyrimidin-5-yl)oxy)phenyl)propan-2-yl)phenoxy)cyclobutyl)amino)-2-(2,6-dioxopiperidin-3-yl)isoindolin-1,3-dione] | –
11 to 100 | – | – | CC(O)c1ncc(Oc2ccc(C(C)(C)c3ccc(OC[C@@H]4CCN4c4ccc5c(c4)C(=O)N(C4CCC(=O)NC4=O)C5=O)cc3)cc2)cn1 (some centres unmarked) [Example 340] | –
11 to 100 | – | – | CC(C)(c1ccc(OCc2ccnc(N3CCC4(CC3)CNC4)n2)cc1)c1ccc(O[C@H]2C[C@@H](Nc3ccc4c(c3)C(=O)N(C3CCC(=O)NC3=O)C4=O)C2)cc1 (some centres unmarked) [Example 84, 5-(((1s,3s)-3-(4-(2-(4-((2-(2,7-diazaspiro[3.5]nonan-7-yl)pyrimidin-4-yl)methoxy)phenyl)propan-2-yl)phenoxy)cyclobutyl)amino)-2-(2,6-dioxopiperidin-3-yl)isoindolin-1,3-dione] | –

SMILES | DC50 [1] [nM] | IC50 [2, 3] [nM] | IC50 [2, 4] [nM] | IC50 [2, 5] [nM]
CC(CNc1ccc2c(c1)C(=O)N(C1CCC(=O)NC1=O)C2=O)COc1ccc(C(C)(C)c2ccc(OCc3ccnc(N4CC5(COC5)C4)n3)cc2)cc1 (centres unmarked) [Example 496, 5-((3-(4-(2-(4-((2-(2-oxa-6-azaspiro[3.3]heptan-6-yl)pyrimidin-4-yl)methoxy)phenyl)propan-2-yl)phenoxy)-2-methylpropyl)amino)-2-(2,6-dioxopiperidin-3-yl)isoindolin-1,3-dione] | < 10 | – | – | 61

Reference: patent US20250051347A1, “BIFUNCTIONAL CHIMERIC HETEROCYCLIC COMPOUND AND USE THEREOF AS ANDROGEN RECEPTOR DEGRADER” (Hinova Pharmaceuticals, Inc., priority 2021, published 2025)
